The conditions of data set [1]: in house data.
In a further data set the target is T1, KV4.3 (Homo sapiens, UniProt Q9UK17).
T1 construct: expressed in transfected cells
T1 sequence (Q9UK17 1-655): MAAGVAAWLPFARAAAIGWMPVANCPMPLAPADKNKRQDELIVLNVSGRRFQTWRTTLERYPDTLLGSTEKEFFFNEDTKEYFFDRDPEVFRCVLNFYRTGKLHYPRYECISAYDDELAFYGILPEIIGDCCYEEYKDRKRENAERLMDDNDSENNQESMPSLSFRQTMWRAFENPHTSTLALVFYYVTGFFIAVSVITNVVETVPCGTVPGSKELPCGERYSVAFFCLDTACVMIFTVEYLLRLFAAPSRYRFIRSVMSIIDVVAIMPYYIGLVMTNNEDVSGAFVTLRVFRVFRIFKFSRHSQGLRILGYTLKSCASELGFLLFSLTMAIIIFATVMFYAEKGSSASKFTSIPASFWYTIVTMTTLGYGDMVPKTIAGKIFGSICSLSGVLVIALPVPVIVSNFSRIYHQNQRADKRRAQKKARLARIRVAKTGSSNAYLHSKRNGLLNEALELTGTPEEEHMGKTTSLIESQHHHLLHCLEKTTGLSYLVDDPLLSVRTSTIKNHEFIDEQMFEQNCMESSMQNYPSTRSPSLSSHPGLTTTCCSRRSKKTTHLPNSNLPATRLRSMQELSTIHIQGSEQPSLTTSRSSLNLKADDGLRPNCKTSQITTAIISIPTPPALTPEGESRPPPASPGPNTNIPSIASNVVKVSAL
The data set is described as follows: Whole-cell patch clamp on KV4.3 (Ito). The class given is cell-based. How it is done: (§1) and CiPA Initiative Studies
(§2) =============================================================
(§3) In vitro studies on other ion channels […]
(§4) through NaV1.5, KV4.3, KV7.1/mink, Kir2.1, KV1.5, CaV1.2 and CaV3.2 channels.
(§5) 35-mm dish culture in the conditions mentioned in standard cell culture conditions. Experiments were performed with a cell density enabling isolated cells for patch clamping. Cells were continuously superfused with extracellular medium (1-2 mL∙minute-1) at room temperature.
(§6) D-glucose 10, HEPES 10 and the final pH adjusted to 7.4±0.02 with NaOH for recording NaV1.5, KV4.3, KV7.1/mink, Kir2.1, KV1.5 and CaV3.2 currents. It was (in mM): NaCl 110, KCl 4, BaCl2 20, MgCl2 1, D-glucose 20, HEPES 10 and the final pH adjusted to 7.4 ± 0.02 with NaOH for recording the CaV1.2 current. Compositions of the intracellular solution to fill the pipette are […]
(§7) Composition of intracellular solutions used to fill pipette to record currents through NaV1.5, KV4.3, KV7.1/mink, Kir2.1, KV1.5, CaV1.2 and CaV3.2 channels
(§8) Solution to fill the pipette (mM)
(§9) Creatine-phospho kinase 50 U∙mL-1
(§10) After formation of a Gigaohm seal between the patch electrodes and individual cells (pipette resistance range: 2.0 MΩ - 7.0 MΩ; seal resistance range: > 1 GΩ) the cell membrane across the pipette tip was ruptured to assure electrical access to the cell interior (whole-cell patch-configuration). In case the quality of the seal was poor, the process of seal formation was repeated with a different cell and a new pipette. As soon as a stable seal was established outward tail currents were measured upon pulses described in the Table S2. If current density was judged to be too low for measurement, another cell was recorded. […]
(§11) voltage stimulation protocol indicated in the next table continuously run until the steady-state level of block was reached.
(§12) Stimulation conditions used to record currents through NaV1.5, KV4.3, KV7.1/mink, Kir2.1, KV1.5, CaV1.2 and CaV3.2 channels
(§13) Ion channel Holding potential Pulse / duration Frequency Reference compound […]
(§14) (resting / fast / slow sweeps at one (10 mM) inactivated concentration)

A further data set has as its system hERG channel trafficking. The source says:
Whole‐cell patch clamp conditions were similar to the previous one with the following slight changes (biphasic pulses 2 s at +20 mV and then for 3.2 s at −50 mV applied at a 0.1 Hz).

The next data set concerns the target T2, CaV3.2 (Homo sapiens, UniProt O95180).
T2 construct: expressed in transfected cells
Briefly: Whole-cell patch clamp on CaV3.2 (ICaT). Type of data set: cell-based. Here is the method:
as §1, §2, §3, §4, §5, §6, §7, §8, §9, §10, §11, §12, §13, §14

The nature of the next data set: in vivo. Details: species or system rabbit. The note with it: female, rabbit, in vivo, iv, read-out: free drug concentration. How it is done: (§15) All the other experimental groups were 100% female.
(§16) The anaesthetized methoxamine‐sensitized rabbit model of TdP is frequently used to study torsadogenic potential of drugs (Carlsson et al., 1990). Briefly, female animals were pre‐sensitized with i.v. infusion of methoxamine, an α1‐adrenoceptor agonist, delivered at 15 μg·kg^−1·min^−1 (6 mL·h^−1) over 70 min.

The test system of data set [2] is methoxamine‐sensitized rabbits. The data set is described as follows: in vivo. Details: species or system rabbit. The note with it: pitolisant alone, 50 and 150 μg·kg^−1·min^−1 over 1 h. Here is the method: as §15, §16

Here are results for one molecule from paper PMC5715595 (British Journal of Pharmacology, 2017).

Like-named read-outs stand apart in the source and are kept apart here.

T2 sequence (O95180 whole entry): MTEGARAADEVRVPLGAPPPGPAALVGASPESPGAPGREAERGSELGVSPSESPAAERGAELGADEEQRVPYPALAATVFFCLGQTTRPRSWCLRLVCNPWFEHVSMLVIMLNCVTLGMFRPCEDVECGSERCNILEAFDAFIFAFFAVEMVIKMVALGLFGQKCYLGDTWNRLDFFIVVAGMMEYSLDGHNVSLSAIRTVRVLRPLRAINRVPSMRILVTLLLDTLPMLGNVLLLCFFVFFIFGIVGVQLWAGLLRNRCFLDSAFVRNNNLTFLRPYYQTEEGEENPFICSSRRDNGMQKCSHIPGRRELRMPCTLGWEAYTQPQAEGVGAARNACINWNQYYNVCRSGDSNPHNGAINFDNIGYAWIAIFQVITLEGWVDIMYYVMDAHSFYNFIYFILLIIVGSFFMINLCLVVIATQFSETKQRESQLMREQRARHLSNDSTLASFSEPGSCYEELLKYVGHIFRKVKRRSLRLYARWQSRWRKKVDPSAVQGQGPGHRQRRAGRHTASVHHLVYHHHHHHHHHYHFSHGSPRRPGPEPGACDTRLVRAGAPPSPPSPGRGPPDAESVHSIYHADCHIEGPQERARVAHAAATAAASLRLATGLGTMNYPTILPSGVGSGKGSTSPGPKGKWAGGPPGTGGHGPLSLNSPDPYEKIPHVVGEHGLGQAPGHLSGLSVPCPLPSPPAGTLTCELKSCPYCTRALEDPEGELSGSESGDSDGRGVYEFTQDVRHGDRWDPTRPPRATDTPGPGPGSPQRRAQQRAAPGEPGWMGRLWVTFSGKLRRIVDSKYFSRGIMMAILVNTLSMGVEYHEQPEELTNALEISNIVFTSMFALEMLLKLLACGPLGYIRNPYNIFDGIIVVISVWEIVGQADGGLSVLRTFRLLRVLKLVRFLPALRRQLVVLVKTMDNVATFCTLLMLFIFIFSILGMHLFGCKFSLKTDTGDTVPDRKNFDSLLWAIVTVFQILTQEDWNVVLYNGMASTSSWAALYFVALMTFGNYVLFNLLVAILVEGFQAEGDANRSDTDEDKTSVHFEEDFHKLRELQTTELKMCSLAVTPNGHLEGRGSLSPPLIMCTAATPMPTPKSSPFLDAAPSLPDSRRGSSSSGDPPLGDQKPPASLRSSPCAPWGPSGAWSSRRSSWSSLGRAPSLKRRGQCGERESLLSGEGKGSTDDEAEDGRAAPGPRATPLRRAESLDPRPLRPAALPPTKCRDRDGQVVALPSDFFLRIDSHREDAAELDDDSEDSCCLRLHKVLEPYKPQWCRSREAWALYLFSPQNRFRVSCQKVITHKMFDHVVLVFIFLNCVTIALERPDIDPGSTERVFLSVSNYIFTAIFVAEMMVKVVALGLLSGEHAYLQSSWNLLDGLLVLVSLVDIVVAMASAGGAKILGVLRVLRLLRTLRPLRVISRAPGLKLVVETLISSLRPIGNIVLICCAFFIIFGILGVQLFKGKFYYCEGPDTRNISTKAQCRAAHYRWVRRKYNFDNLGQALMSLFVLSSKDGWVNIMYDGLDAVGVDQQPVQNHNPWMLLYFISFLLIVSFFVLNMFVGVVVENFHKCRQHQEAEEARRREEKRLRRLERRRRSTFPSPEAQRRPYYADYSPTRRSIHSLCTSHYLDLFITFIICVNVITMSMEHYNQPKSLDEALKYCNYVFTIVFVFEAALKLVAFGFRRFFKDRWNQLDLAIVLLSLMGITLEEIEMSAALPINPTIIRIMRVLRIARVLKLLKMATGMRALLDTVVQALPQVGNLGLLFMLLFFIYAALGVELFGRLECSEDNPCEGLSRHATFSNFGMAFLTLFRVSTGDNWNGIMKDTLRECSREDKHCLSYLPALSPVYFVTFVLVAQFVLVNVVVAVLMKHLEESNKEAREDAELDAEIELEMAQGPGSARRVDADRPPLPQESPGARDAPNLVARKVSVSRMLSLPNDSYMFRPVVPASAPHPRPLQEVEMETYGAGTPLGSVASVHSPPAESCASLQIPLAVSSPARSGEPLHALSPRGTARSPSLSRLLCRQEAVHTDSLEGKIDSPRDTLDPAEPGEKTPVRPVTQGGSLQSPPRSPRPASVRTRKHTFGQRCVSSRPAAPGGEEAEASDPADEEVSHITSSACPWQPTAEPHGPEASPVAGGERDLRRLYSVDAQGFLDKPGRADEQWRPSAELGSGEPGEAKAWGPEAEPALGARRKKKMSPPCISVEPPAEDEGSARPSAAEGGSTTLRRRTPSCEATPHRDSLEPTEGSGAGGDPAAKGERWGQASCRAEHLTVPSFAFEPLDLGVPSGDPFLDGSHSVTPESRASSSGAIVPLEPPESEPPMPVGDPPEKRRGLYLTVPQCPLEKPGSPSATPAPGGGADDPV

In the case of `Cl.Clc1ccc(CCCOCCCN2CCCCC2)cc1` [pitolisant, 1‐{3‐[3‐(4‐chlorophenyl)propoxy]propyl}piperidine, hydrochloride], the protein-binding in data set [1] came out at 96%. Also, the IC50 at KV4.3 (KV4.3 Ito, Hill curve fit with Hill coefficient of one, read-out: Fitted IC50) was 11.4 µM; against KV4.3 (Pitolisant IC50, KV4.3, Ito) it was approximately 10 µM; on CaV3.2 (CaV3.2 ICaT, Hill curve fit with Hill coefficient of one, read-out: Fitted IC50), 25.7 µM; against CaV3.2 (Pitolisant IC50, CaV3.2, ICaT), not below 10 µM. In addition, the “effect on hERG current after long-term exposure” value in the data set on hERG channel trafficking (1 μM over 24 h, after washout) is reported as “no significant effect on hERG current”. Moreover, the “change in concentration in the cell culture medium over 24 h of exposure” value in the data set with hERG channel trafficking (LC-mass spectrometry) is “no significant changes”. Besides, the concentration at 1 h was approximately 140 nM in the data set “in vivo” (after 50 μg·kg^−1·min^−1 1 h i.v. infusion) and approximately 450 nM in the data set “in vivo” (after 150 μg·kg^−1·min^−1 1 h i.v. infusion). Besides, the “effect on QTc interval” value in data set [2] is reported as “devoid of any effect on QTc interval”. For the same molecule, in data set [2], the pro-arrhythmic effect result was “lacked any pro‐arrhythmic effect”.
